Data from US6916832B2, “Chromeno[4,3,2-de]isoquinolines as potent dopamine receptor ligands” (University of North Carolina at Chapel Hill, priority 1999, dated 2005).

Tests used:
D1 receptors [1] = target: T1, D1 receptors (Rattus norvegicus, UniProt P18901); assay: cAMP production in rat striatum homogenate; assay type: biochemical; conditions: for agonist intrinsic activity at D1 receptors: rat striatum / rat striatal membranes, relative to dopamine
T1 construct: Frozen rat striata was homogenized by seven manual strokes; from tissue; host or cells: rat striatum
T1 sequence (P18901 whole entry): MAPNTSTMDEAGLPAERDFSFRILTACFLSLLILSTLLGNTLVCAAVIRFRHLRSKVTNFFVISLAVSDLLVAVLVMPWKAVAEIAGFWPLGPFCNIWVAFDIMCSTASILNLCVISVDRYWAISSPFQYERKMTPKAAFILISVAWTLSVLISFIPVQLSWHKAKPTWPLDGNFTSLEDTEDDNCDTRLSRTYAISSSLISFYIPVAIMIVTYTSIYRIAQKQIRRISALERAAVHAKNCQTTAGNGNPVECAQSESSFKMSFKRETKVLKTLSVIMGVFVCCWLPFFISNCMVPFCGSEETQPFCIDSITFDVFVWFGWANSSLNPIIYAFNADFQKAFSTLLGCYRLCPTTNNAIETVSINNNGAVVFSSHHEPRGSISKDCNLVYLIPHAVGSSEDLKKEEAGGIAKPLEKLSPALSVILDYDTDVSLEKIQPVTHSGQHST
Procedure: Frozen striatal tissue (ca. 40 mg) was homogenized in 4 ml of buffer (5 mM Hepes, 2 mM EGTA, pH 7.5) using 10 strokes in a Wheaton Teflon-glass homogenizer. Four ml of 50 mM Hepes with 2 mM EGTA buffer (pH 7.5) was added, and the tissue was homogenized by an additional 3 strokes. A 20 μl aliquot of this tissue homogenate was added to a prepared reaction. The reaction mixture consisted of 100 mM Hepes (pH 7.4), 100 mM NaCl, 4 mM MgCl2, 2 mM EDTA, 500 μM isobutyl methylxanthine (IBMX), 0.01% ascorbic acid, 10 μM pargyline, 2 mM ATP, 5 μM GTP, 20 mM phosphocreatine, 5 units of creatine phosphokinase (CPK), and selected concentrations of DA. The final reaction volume was 100 μl. Basal cAMP activity was determined by incubation of tissue in the reaction mixture with no drug added. Tubes were assayed in duplicate. After a 15 min incubation at 30° C., the reaction was stopped with the addition of 500 μl of 0.1 N HCl. Tubes were vortexed briefly, and then spun in a BHG Hermle Z 230 M microcentrifuge for five min at 15,000×g to eliminate large particles. The concentration of cAMP in each sample was determined with an RIA of acetylated cAMP, modified from that previously described (Harper and Brooker, 1975). Iodination of cAMP was performed using a method described previously (Patel and Linden, 1988). Assay buffer was 50 mM sodium acetate buffer with 0.1% sodium azide (pH 4.75). Standard curves of cAMP were prepared in buffer at concentrations of 2 to 500 fmoles/assay tube. To improve assay sensitivity, all samples and standards were acetylated with 10 μl of a 2:1 solution of triethylamine:acetic anhydride. Samples were assayed in duplicate. Each assay tube contained 100 μl of diluted sample, 100 μl of primary antibody (sheep, anti-cAMP, 1:100,000 dilution with 1% BSA in buffer) and 100 μl of [^125I]-cAMP (50,000 dpm/100 μl of buffer); total assay volume was 300 μl. Tubes were vortexed and stored at 4° C. overnight (approx. 18 hr). Antibody-bound radioactivity was then separated by the addition of 25 μL of BioMag rabbit, anti-goat IgG (Advanced Magnetics, Cambridge Mass.), followed by vortexing and further incubation at 4° C. for 1 hr. To these samples 1 ml of 12% polyethylene glycol/50 mM sodium acetate buffer (pH 6.75) was added and all tubes were centrifuged at 1700×g for 10 min. Supernatants were aspirated and radioactivity in the resulting pellet was determined using an LKB Wallac gamma counter (Gaithersburg, Md.). Data were calculated for each sample, and expressed initially as pmol/mg/min cAMP. […] Normalized dose-response curves were analyzed by nonlinear regression using an algorithm for sigmoid curves in the curvefitting program InPlot (Graphpad, Inc.; San Francisco, Calif.). […]

D1 receptors [2] = target: T2, D1 receptors (Macaca mulatta, UniProt O77680); assay: cAMP production in C-6-mD1 cells (cloned expressed primate D1A receptors); assay type: cell-based; conditions: for agonist intrinsic activity at D1 receptors: C-6-mD1 cells / cloned expressed primate D1A receptors, relative to dopamine
T2 construct: expressed in transfected cells; host or cells: C-6 glioma cells (C-6-mD1)
T2 sequence (O77680 whole entry): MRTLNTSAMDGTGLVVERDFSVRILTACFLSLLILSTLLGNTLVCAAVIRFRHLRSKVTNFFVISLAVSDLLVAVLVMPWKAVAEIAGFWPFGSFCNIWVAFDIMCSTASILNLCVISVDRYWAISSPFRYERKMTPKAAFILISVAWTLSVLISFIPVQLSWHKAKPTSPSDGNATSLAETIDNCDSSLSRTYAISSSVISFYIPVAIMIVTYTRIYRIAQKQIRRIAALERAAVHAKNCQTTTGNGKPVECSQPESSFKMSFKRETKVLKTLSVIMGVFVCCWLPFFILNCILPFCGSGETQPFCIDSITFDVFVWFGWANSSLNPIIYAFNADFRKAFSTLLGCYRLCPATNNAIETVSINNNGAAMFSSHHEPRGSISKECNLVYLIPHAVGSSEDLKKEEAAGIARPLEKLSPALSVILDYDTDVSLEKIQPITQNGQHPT
Procedure: Radioreceptor and function studies were also conducted for cloned human or monkey receptors transfected into one of several cell lines [e.g., C-6 glioma or Chinese hamster ovary (CHO) cells]. Cells were grown in appropriate medium, and at confluency, harvested for membrane preparation. Flasks of cells in the same passage were scraped using a rubber policeman and collected in 50 ml centrifuge tubes. These were spun for 10 min at 1200×g, to pellet whole cells. The supernatant was discarded and then five ml of PBS (phosphate buffered saline)/flask was added to the centrifuge tubes to resuspend the cells. The tubes were then centrifuged again for […] at 28,500×g. The PBS was removed and the pellet suspended in a solution of 10% DMSO in PBS. Cells were homogenized with a polytron for 10 seconds on setting 5. One ml aliquots were stored at −80° C. until use in receptor binding studies. Aliquots contained approximately 1 mg/ml of protein, as measured using the BCA protein assay reagent (Pierce, Rockford, Ill.). Agonist intrinsic activity was assessed by the ability of selected compounds to stimulate adenylate cyclase, as measured by cAMP formation in whole cells. In C-6 cells, for example, the dose response curve for each drug was fit using a sigmoid function to determine maximal effective concentration (top plateau of curve) as well as EC50s. All drugs were run in the same assay in order to decrease variability across cell passages. Confluent plates of cells were incubated with drugs dissolved in DMEM-H plain media supplemented with 20 mM Hepes, 0.01% ascorbic acid and 500 μM iso-butyl-methyl xanthine (IBMX; pH 7.2; media A). The final volume for each well was 500 μl. In addition to the dose response curves run for each drug, basal levels of cAMP and isoproterenol-stimulated (through endogenous β2 receptors, positive control) cAMP levels were evaluated for each plate. Each condition was run in duplicate wells. Following a 10 min incubation at 37° C., cells were rinsed briefly with media, and the reaction stopped with the addition of 500 μl 0.1 N HCl. Cells were then allowed to chill for 5-10 min at 4° C., the wells were scraped and the volume placed into 1.7 ml centrifuge tubes. An additional 1 ml of 0.1 N HCl was added to each tube, for a final volume of 1.5 ml/tube. Tubes were vortexed briefly, and then spun in a BHG Hermle Z 230 M microcentrifuge for five min at 15,000×g to eliminate large cellular particles. Cyclic AMP levels for each sample were determined as described above. Data were calculated for each sample, and expressed initially as pmol/mg/min cAMP. […] Normalized dose-response curves were analyzed by nonlinear regression using an algorithm for sigmoid curves in the curvefitting program InPlot (Graphpad, Inc.; San Francisco, Calif.). […]

D1 and D2 receptors = assay: D1:D2 selectivity from receptor binding
Procedure: (§1) Frozen rat striata was homogenized by seven manual strokes in a Wheaton Teflon-glass homogenizer in 8 ml ice cold 50 mM HEPES buffer with 4.0 mM MgCl2, (pH 7.4). The tissue was centrifuged at 27,000×g for 10 min, the supernatant was discarded, and the pellet was homogenized (5 strokes) and resuspended in ice cold buffer and centrifuged again. The final pellet was suspended at a concentration of approximately 2.0 mg wet weight/ml. The amount of tissue added to each assay tube was 1.0 mg, in a final assay volume of 1.0 ml. D1 receptors were labeled with [^3H] SCH23390 (0.30 nM). D2 receptors were labeled with [^3H] spiperone (0.07 nM); unlabeled ketanserin (50 nM) was added to mask binding to 5HT2 sites. Total binding was defined as radioligand bound in the absence of any competing drug. Nonspecific binding was estimated by adding unlabeled SCH23390 (1 μM) or unlabeled chlorpromazine ([…]) for D1 and D2 receptor binding assays, respectively. Triplicate determinations were made for each drug concentration in each assay. Assay tubes were incubated at 37° C. for 15 minutes. Binding was terminated by filtering with ice cold buffer on a Skatron 12 well cell harvester (Skatron, Inc., Sterling, Va.) using glass fiber filter mats (Skatron no. 7034). […] After shaking for 30 minutes, radioactivity was determined on a LKB Wallac 1219 RackBeta liquid scintillation counter (Wallac, Gaithersburg, Md.). […]

cloned human D4 receptor = target: T3, cloned human D4 receptor (Homo sapiens, UniProt P21917); assay: Radioreceptor binding, cloned human D4 receptor; conditions: read-out: K0.5 at the cloned human D4 receptor
T3 construct: expressed in transfected cells; host or cells: not specified (e.g. C-6 glioma or CHO cells)
T3 sequence (P21917 1-419): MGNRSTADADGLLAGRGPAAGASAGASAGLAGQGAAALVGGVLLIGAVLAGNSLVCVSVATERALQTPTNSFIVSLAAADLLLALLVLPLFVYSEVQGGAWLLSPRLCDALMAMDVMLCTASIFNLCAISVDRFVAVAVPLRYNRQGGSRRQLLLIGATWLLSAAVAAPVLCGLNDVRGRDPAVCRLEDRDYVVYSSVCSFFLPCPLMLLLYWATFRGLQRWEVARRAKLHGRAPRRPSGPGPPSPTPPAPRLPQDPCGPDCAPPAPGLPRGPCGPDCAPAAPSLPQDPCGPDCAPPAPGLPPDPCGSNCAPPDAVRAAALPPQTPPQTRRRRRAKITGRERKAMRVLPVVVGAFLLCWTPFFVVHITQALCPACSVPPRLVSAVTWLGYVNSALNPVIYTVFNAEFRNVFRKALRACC
Procedure: Cells were grown in appropriate medium, and at confluency, harvested for membrane preparation. Flasks of cells in the same passage were scraped using a rubber policeman and collected in 50 ml centrifuge tubes. These were spun for 10 min at 1200×g, to pellet whole cells. The supernatant was discarded and then five ml of PBS (phosphate buffered saline)/flask was added to the centrifuge tubes to resuspend the cells. The tubes were then centrifuged again for min at 28,500×g. The PBS was removed and the pellet suspended in a solution of 10% DMSO in PBS. Cells were homogenized with a polytron for 10 seconds on setting 5. One ml aliquots were stored at −80° C. until use in receptor binding studies. Aliquots contained approximately 1 mg/ml of protein, as measured using the BCA protein assay reagent (Pierce, Rockford, Ill.). […]

[3] = target: T4, rat striatal D1 receptors (Rattus norvegicus, UniProt P18901); assay: Radioreceptor binding, rat striatal D1 receptors labeled with [3H]SCH23390
T4 construct: Frozen rat striata was homogenized by seven manual strokes; from tissue; host or cells: rat striatum
T4 sequence (P18901 whole entry): as the sequence (P18901 whole entry) above
Procedure: FIG. 1 is a graphic representation of the affinity of dinoxyline (circles), dinapsoline (diamonds) and (+)-SCH23390 (solid circles) for striatal D1 receptors. Rat striatal D1 receptors were labeled with [^3H]SCH23390 (1), and unlabeled dinoxyline, dinapsoline, or (+)-SCH23390 was added to determine the specific binding of each compound to the D1 receptor.
Frozen rat striata was homogenized by seven manual strokes in a Wheaton Teflon-glass homogenizer in 8 ml ice cold 50 mM HEPES buffer with 4.0 mM MgCl2, (pH 7.4). The tissue was centrifuged at 27,000×g for 10 min, the supernatant was discarded, and the pellet was homogenized (5 strokes) and resuspended in ice cold buffer and centrifuged again. The final pellet was suspended at a concentration of approximately 2.0 mg wet weight/ml. The amount of tissue added to each assay tube was 1.0 mg, in a final assay volume of 1.0 ml. D1 receptors were labeled with [^3H] SCH23390 (0.30 nM). D2 receptors were labeled with [^3H] spiperone (0.07 nM); unlabeled ketanserin (50 nM) was added to mask binding to 5HT2 sites. Total binding was defined as radioligand bound in the absence of any competing drug. Nonspecific binding was estimated by adding unlabeled SCH23390 (1 μM) or unlabeled chlorpromazine ([…]) for D1 and D2 receptor binding assays, respectively. Triplicate determinations were made for each drug concentration in each assay. Assay tubes were incubated at 37° C. for 15 minutes. Binding was terminated by filtering with ice cold buffer on a Skatron 12 well cell harvester (Skatron, Inc., Sterling, Va.) using glass fiber filter mats (Skatron no. 7034). Filters were allowed to dry and 2.0 ml of Optiphase HI-SAF II scintillation fluid was added. After shaking for 30 minutes, radioactivity was determined on a LKB Wallac 1219 RackBeta liquid scintillation counter (Wallac, Gaithersburg, Md.). Tissue protein levels were estimated using the BCA protein assay reagent.

striatal D2 receptors = assay: Radioreceptor binding, striatal D2 receptors labeled with [3H]spiperone; parameters: species or system rat; conditions: compared with dihydrexidine
Procedure: FIG. 3 is a graphic representation of the affinity of dinoxyline (circles), dinapsoline (diamonds), and chlorpromazine for striatal D2 receptors labeled with [^3H]spiperone. Unlabeled dinoxyline, dinapsoline, or chlorpromazine was added to determine the specific binding of each compound to the D2 receptor.
as §1, with “respectively.” for “respectively. Triplicate determinations were made for each drug concentration in each assay. Assay tubes were incubated at 37° C. for 15 minutes. Binding was terminated by filtering with ice cold buffer on a Skatron 12 well cell harvester (Skatron, Inc., Sterling, Va.) using glass fiber filter mats (Skatron no. 7034).”

[4] = tested on: rat unilateral 6-OHDA-lesion model; assay: Rat unilateral 6-OHDA-lesion model, contralateral rotation; assay type: in vivo
Source text: (§2) Accordingly dinoxyline and its derivatives have potential clinical utility in Parkinson's Disease and in other conditions where perturbation of dopamine receptors may be therapeutic.

[5] = tested on: marmosets having moderately-severe MPTP-induced dopamine denervation; assay: Marmosets with moderately-severe MPTP-induced dopamine denervation; assay type: in vivo, marmoset; conditions: preliminary studies
Source text: as §2

D1 receptor = D1 receptor (Homo sapiens, UniProt P21728); conditions: preparations with decreased receptor reserve; cited from earlier work
D1 receptor, sequence (P21728 whole entry): as the sequence (O77680 whole entry) above, with I311N counted along it

[6] = tested on: MPTP-treated monkey model; conditions: cited from earlier work
D2-like receptors = assay: Functional selectivity at D2-like receptors in rats (in vivo or in vitro); parameters: species or system rat

## Oc1cc2c(cc1O)C(c1ccccc1)CNCC2 (single isomer, unassigned; (+)) [(+)-SKF 38393, reference compound]
D1 receptors [1]
  agonist intrinsic activity at D1 receptors: partial agonist
D1 receptors [2]
  agonist intrinsic activity at D1 receptors: partial agonist

## Oc1ccc2c(c1O)Cc1cccc3c1C2CNC3 (racemic) [dinapsoline, (±)-8,9-dihydroxy-2,3,7,11b-tetrahydro-1H-naphtho[1,2,3-de]isoquinoline, reference compound]
D1 and D2 receptors
  D1:D2 selectivity: five-fold
Cloned human D4 receptor
  Ki: > 1000 nM

## Br.Oc1ccc2c(c1O)Oc1cccc3c1C2CNC3 (racemic) [dinoxyline, (±)-8,9-dihydroxy-1,2,3,11b-tetrahydrochromeno[4,3,2-de]isoquinoline hydrobromide]
[3]; [3H]SCH23390 label, rat striatum, read-out: K0.5 for rat striatal D1 receptors
  Ki: < 5 nM
[3]; compared with dihydrexidine
  affinity for dopamine D1 receptors labeled with [3H]SCH23390 (in words): high affinity
[3]; competition at D1 receptors labeled with [3H]SCH23390, shallow curve consistent with agonist properties
  nH of competition curve: ca. 0.7
D1 and D2 receptors
  D1:D2 selectivity: equally high affinity for both receptors
other
  melting point: 298 to 302 °C (dec.)
Striatal D2 receptors
  affinity for D2-like receptors (in words): greater affinity
D1 receptors [1]; hydrobromide
  agonist intrinsic activity at D1 receptors: full agonist activity
D1 receptors [1]; rat striatum, read-out: EC50 in stimulating synthesis of cAMP via D1 receptors
  EC50: < 30 nM
Cloned human D4 receptor
  Ki: < 45 nM
[4]; same route (subcutaneous)
  duration of action relative to a similar dose of dihydrexidine: more than twice
[4]; single subcutaneous dose
  contralateral rotation: significant rotation
D1 receptors [2]; hydrobromide
  agonist intrinsic activity at D1 receptors: full agonist activity
D1 receptors [2]; C-6-mD1 cells, read-out: EC50 in stimulating synthesis of cAMP via D1 receptors
  EC50: < 30 nM
[5]
  antiparkinson effects (locomotion, arousal, Parkinson signs): significant antiparkinson effects

## C=CCN1CCc2c(cc(O)c(O)c2Cl)C(c2ccccc2)C1 (stereo not shown) [SKF82958]
D1 receptor
  intrinsic efficacy at D1 receptor: not to have full intrinsic efficacy

## Oc1cc2c(cc1O)[C@H]1c3ccccc3CN[C@@H]1CC2 (racemic) [dihydrexidine, (±)-trans-10,11-dihydroxy-5,6,6a,7,8,12b-hexahydrobenzo[a]phenanthridine]
[6]
  antiparkinsonian effects: exceptional antiparkinsonian effects
D1 receptors [1]
  agonist intrinsic activity at D1 receptors: full agonist
D1 receptors [2]
  agonist intrinsic activity at D1 receptors: full agonist
D2-like receptors
  activity at D2-like receptors located post-synaptically: agonist
  activity at D2-like receptors located pre-synaptically: antagonist

## NC[C@@H]1O[C@H](C23CC4CC(CC(C4)C2)C3)Cc2c1ccc(O)c2O [Example A-77636]
[6]
  antiparkinsonian effects: exceptional antiparkinsonian effects
